Target: T1, human GPR119 (hGPR119) (Homo sapiens, UniProt Q8TDV5)
T1 construct: expressed in transfected cells
T1 sequence (Q8TDV5 1-335): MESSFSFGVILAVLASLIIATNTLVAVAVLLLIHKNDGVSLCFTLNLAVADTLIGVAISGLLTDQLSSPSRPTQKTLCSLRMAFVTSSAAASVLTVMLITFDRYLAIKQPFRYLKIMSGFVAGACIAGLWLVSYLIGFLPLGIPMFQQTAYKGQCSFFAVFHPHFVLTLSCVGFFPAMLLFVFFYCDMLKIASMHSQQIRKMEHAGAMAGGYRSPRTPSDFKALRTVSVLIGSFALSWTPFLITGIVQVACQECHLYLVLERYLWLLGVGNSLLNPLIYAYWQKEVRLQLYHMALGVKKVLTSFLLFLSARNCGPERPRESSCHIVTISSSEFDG
Assay: cAMP accumulation assay (cAMP Gs dynamic HTRF kit)
Assay type: cell-based
Conditions: CHO-K1 cells stably expressing hGPR119, 4-parameter fit; for Emax: 1 h, % activity normalized to Max/Min controls; for EC50: cAMP accumulation
Method: CHO-K1 cells stably expressing human GPR119 (hGPR119) were prepared by transfection of a GPR119-carrying plasmid using Lipofectamine 2000 (following manufacturer instructions). A stable cell line was established using the limiting dilution method with geneticine selection. Assay-ready frozen (ARF) cells were prepared and used throughout the study.
The assay was performed in a 384-well plate format using the cAMP Gs dynamic assay kit from Cisbio. ARF cells expressing hGPR119 were thawed, washed and then resuspended in cAMP stimulation buffer at a cell density of 1.1×10^6 cells/mL. Cells were plated at a density of ˜10,000 cells/well (9 μL/well). Dose response curves for the tested compounds were prepared in a cAMP stimulation buffer, containing 0.1% Tween 80 at 4 fold the final concentration. The compounds were then transferred to the cell plates using BRAVO (3 μL/well) and the plates were incubated for 60 minutes at 37° C./5% CO2. Detection buffer (10 μL, prepared as described in the cAMP Gs dynamic kit) were added to each well, and the plates were incubated at ambient temperature for 1 hr.
RT-FRET was measured using a ClarioSTAR plate reader, calculating the ratio between emissions at 665 nm and 620 nm (HTRF ratio). The HTRF ratio for positive (Max) and negative (Min) controls were used to normalize HTRF data and generate values for % activity. EC50 and Max activity values were determined using a standard 4-parameter fit.

Row | SMILES | Emax [%] | EC50 [nM]
1 | O=C(Cc1ccc(OCCCC2CCN(c3ncc(Cl)cn3)CC2)cc1F)N1CCC(O)(C(=O)NC[C@H](O)[C@@H](O)[C@H](O)[C@H](O)CO)C1 (stereo partly drawn) [Example 181, 1-[2-[4-[3-[1-(5-chloropyrimidin-2-yl)-4-piperidyl]propoxy]-2-fluoro-phenyl]acetyl]-3-hydroxy-N-[(2S,3R,4R,5R)-2,3,4,5,6-pentahydroxyhexyl]pyrrolidine-3-carboxamide] | 100 to 130 | ≤ 100
2 | O=C(Cc1ccc(OCCCC2CCN(C(=O)OC3(C(F)(F)F)COC3)CC2)cc1F)N1CC(CNC[C@H](O)[C@@H](O)[C@H](O)[C@H](O)CO)C1 [Example 125, [3-(trifluoromethyl)oxetan-3-yl] 4-[3-[3-fluoro-4-[2-oxo-2-[3-[[[(2S,3R,4R,5R)-2,3,4,5,6-pentahydroxyhexyl]amino]methyl]azetidin-1-yl]ethyl]phenoxy]propyl]piperidine-1-carboxylate] | 100 to 130 | 100 to 1000
3 | O=C(Cc1ccc(OCCCC2CCN(c3ncc(Cl)cn3)CC2)cc1F)N1CC(CCNC(CO)CO)C1 [Example 56, 2-(4-(3-(1-(5-chloropyrimidin-2-yl)piperidin-4-yl)propoxy)-2-fluorophenyl)-1-(3-(2-((1,3-dihydroxypropan-2-yl)amino)ethyl)azetidin-1-yl)ethan-1-one] | 100 to 130 | ≤ 100
4 | O=C(NCCCCCS(=O)(=O)O)C1CN(C(=O)Cc2ccc(OCCCC3CCN(c4ncc(Cl)cn4)CC3)cc2F)C1 [Example 174, 5-[[1-[2-[4-[3-[1-(5-chloropyrimidin-2-yl)-4-piperidyl]propoxy]-2-fluoro-phenyl]acetyl]azetidine-3-carbonyl]amino]pentane-1-sulfonic acid] | 100 to 130 | 100 to 1000
5 | CC(C)OC(=O)N1CCC(CCCOc2ccc(CC(=O)N3CC(CNC[C@H](O)[C@@H](O)[C@H](O)[C@H](O)CO)C3)c(F)c2)CC1 [Example 112, isopropyl 4-[3-[3-fluoro-4-[2-oxo-2-[3-[[[(2S,3R,4R,5R)-2,3,4,5,6-pentahydroxyhexyl]amino]methyl]azetidin-1-yl]ethyl]phenoxy]propyl] piperidine-1-carboxylate] | 100 to 130 | 100 to 1000
6 | CC1(OC(=O)N2CCC(CCCOc3ccc(CC(=O)N4CC(CNC[C@H](O)[C@@H](O)[C@H](O)[C@H](O)CO)C4)c(F)c3)CC2)CC1 (racemic) [Example 119, (1-methylcyclopropyl) 4-[3-[3-fluoro-4-[2-oxo-2-[3-[[[rac-(2S,3R,4R,5R)-2,3,4,5,6-pentahydroxyhexyl]amino]methyl]azetidin-1-yl]ethyl]phenoxy]propyl]piperidine-1-carboxylate] | 100 to 130 | 100 to 1000
7 | O=C(Cc1ccc(OCCCCC2CCN(c3ncc(Cl)cn3)CC2)cc1F)N1CC(CNC[C@H](O)[C@@H](O)[C@H](O)[C@H](O)CO)C1 [Example 54, 2-[4-[4-[1-(5-chloropyrimidin-2-yl)-4-piperidyl]butoxy]-2-fluoro-phenyl]-1-[3-[[[(2S,3R,4R,5R)-2,3,4,5,6-pentahydroxyhexyl]amino]methyl]azetidin-1-yl]ethanone] | ≥ 130 | 100 to 1000
8 | O=C(Cc1ccc(OCCCC2CCN(c3ncc(Cl)cn3)CC2)cc1F)NCCCCS(=O)(=O)O [Example 12, 4-[[2-[4-[3-[1-(5-chloropyrimidin-2-yl)-4-piperidyl]propoxy]-2-fluoro-phenyl]acetyl]amino]butane-1-sulfonic acid] | ≥ 130 | 1000 to 10000
9 | CCCc1cnc(N2CCC(CCCOc3cc(F)c(CC(=O)NCCCCC[N+](CC)(CC)CC)c(F)c3)CC2)nc1 [Example 4, 5-[[2-[2,6-difluoro-4-[3-[1-(5-propylpyrimidin-2-yl)-4-piperidyl]propoxy]phenyl]acetyl]amino] pentyl-triethyl-ammonium] | 100 to 130 | 100 to 1000
10 | CC(C)OC(=O)N1CCC2(CC1)CC2CCCOc1ccc(CC(=O)N2CC(CNC[C@H](O)[C@@H](O)[C@H](O)[C@H](O)CO)C2)c(F)c1 (stereo partly drawn) [Example 145, isopropyl 2-[3-[3-fluoro-4-[2-oxo-2-[3-[[[(2S,3R,4R,5R)-2,3,4,5,6-pentahydroxyhexyl]amino]methyl]azetidin-1-yl]ethyl]phenoxy]propyl]-6-azaspiro[2.5]octane-6-carboxylate] | 50 to 100 | 1000 to 10000
11 | O=C(Cc1ccc(OCCCC2CCN(c3ncc(Cl)cn3)CC2)cc1F)N1CC(CN2C[C@@H](O)[C@@H](O)C2)C1 [Example 48, 2-[4-[3-[1-(5-chloropyrimidin-2-yl)-4-piperidyl]propoxy]-2-fluoro-phenyl]-1-[3-[[rac-(3S,4R)-3,4-dihydroxypyrrolidin-1-yl]methyl]azetidin-1-yl]ethanone] | 100 to 130 | ≤ 100
12 | O=C(Cc1ccc(OCCCC2CCN(c3ncc(Cl)cn3)CC2)cc1F)NCCS(=O)(=O)O [Example 10, 2-[[2-[4-[3-[1-(5-chloropyrimidin-2-yl)-4-piperidyl]propoxy]-2-fluoro-phenyl]acetyl]amino]ethanesulfonic acid] | ≥ 130 | 1000 to 10000
13 | O=C(Cc1c(F)cc(OCCCC2CCN(C(=O)OC3(C(F)(F)F)COC3)CC2)cc1F)N1CC(CNC[C@H](O)[C@@H](O)[C@H](O)[C@H](O)CO)C1 [Example 126, [3-(trifluoromethyl)oxetan-3-yl] 4-[3-[3,5-difluoro-4-[2-oxo-2-[3-[[[(2S,3R,4R,5R)-2,3,4,5,6-pentahydroxyhexyl]amino]methyl]azetidin-1-yl]ethyl]phenoxy]propyl] piperidine-1-carboxylate] | 100 to 130 | 100 to 1000

Further lines, results first:

Row | Emax [%] | EC50 [nM] | SMILES
14 | ≥ 130 | ≤ 100 | CCOc1cnc(N2CCC(CCCOc3ccc(CC(=O)N4CC[C@@H](CNCC(O)(CO)CO)C4)c(F)c3)CC2)nc1 [Example 153, 2-[4-[3-[1-(5-ethoxypyrimidin-2-yl)-4-piperidyl]propoxy]-2-fluoro-phenyl]-1-[(3S)-3-[[[2,3-dihydroxy-2-(hydroxymethyl)propyl]amino]methyl]pyrrolidin-1-yl]ethanone]
15 | ≥ 130 | ≤ 100 | CCc1cnc(N2CCC(CCCOc3cc(F)c(CC(=O)N4CC(CNCCNC(=O)NC(CO)(CO)CO)C4)c(F)c3)CC2)nc1 [Example 68, 1-(1,3-dihydroxy-2-(hydroxymethyl)propan-2-yl)-3-(2-(((1-(2-(4-(3-(1-(5-ethylpyrimidin-2-yl)piperidin-4-yl)propoxy)-2,6-difluorophenyl)acetyl)azetidin-3-yl)methyl)amino)ethyl)urea]
16 | 100 to 130 | ≤ 100 | COCc1cnc(N2CCC(CCCOc3cc(F)c(CC(=O)N4CCC(O)(CNCC(CO)(CO)CO)C4)c(F)c3)CC2)nc1 (stereo not shown) [Example 190, 2-[2,6-difluoro-4-[3-[1-[5-(methoxymethyl)pyrimidin-2-yl]-4-piperidyl]propoxy]phenyl]-1-[3-hydroxy-3-[[[3-hydroxy-2,2-bis(hydroxymethyl)propyl]amino]methyl]pyrrolidin-1-yl]ethanone]
17 | 100 to 130 | ≤ 100 | CCOc1cnc(N2CCC(CCCOc3cc(F)c(CC(=O)N4CC(CNC[C@H](O)[C@@H](O)[C@H](O)[C@H](O)CO)C4)c(F)c3)CC2)nc1 [Example 114, 2-[4-[3-[1-(5-ethoxypyrimidin-2-yl)-4-piperidyl]propoxy]-2,6-difluoro-phenyl]-1-[3-[[[(2S,3R,4R,5R)-2,3,4,5,6-pentahydroxyhexyl]amino]methyl]azetidin-1-yl]ethanone]
18 | 100 to 130 | ≤ 100 | O=C(Cc1c(F)cc(OCCCC2CCN(c3ncc(Cl)cn3)CC2)cc1F)N1CC[C@@H](CNC[C@H](O)[C@@H](O)[C@H](O)[C@H](O)CO)C1 [Example 132, 2-[4-[3-[1-(5-chloropyrimidin-2-yl)-4-piperidyl]propoxy]-2,6-difluoro-phenyl]-1-[(3S)-3-[[[(2S,3R,4R,5R)-2,3,4,5,6-pentahydroxyhexyl]amino]methyl]pyrrolidin-1-yl]ethanone]
19 | 100 to 130 | ≤ 100 | CCc1cnc(N2CCC(CCCOc3cc(F)c(CC(=O)N4CC(CNCC(O)(CO)CO)C4)c(F)c3)CC2)nc1 [Example 67, 1-(3-(((2,3-dihydroxy-2-(hydroxymethyl)propyl)amino)methyl)azetidin-1-yl)-2-(4-(3-(1-(5-ethylpyrimidin-2-yl)piperidin-4-yl)propoxy)-2,6-difluorophenyl)ethan-1-one]
20 | ≥ 130 | ≤ 100 | CCc1cnc(N2CCC(CCCOc3ccc(CC(=O)N4CC(CNC(CO)(CO)CO)C4)c(F)c3)CC2)nc1 [Example 64, 1-(3-(((1,3-dihydroxy-2-(hydroxymethyl)propan-2-yl)amino)methyl)azetidin-1-yl)-2-(4-(3-(1-(5-ethylpyrimidin-2-yl)piperidin-4-yl)propoxy)-2-fluorophenyl)ethan-1-one]

From patent US20230061736A1, “GPR119 AGONISTS” (Kallyope, Inc., priority 2019, published 2023)
